Each structure is given as a SMILES string.

The test system of experiment [1] is Ctenocephalides felis. In words: Ctenocephalides felis in-vitro feeding test with fleas (CTECFE oral). As to conditions: 48 hours, read-out: insecticidal feeding activity; for pest or weed control at 0.032 ppm: dose 0.032 ppm in citrated cattle blood; for pest or weed control at 0.16 ppm: dose 0.16 ppm in citrated cattle blood; for pest or weed control at 0.8 ppm: dose 0.8 ppm in citrated cattle blood; for pest or weed control at 4 ppm: dose 4 ppm in citrated cattle blood. The method in brief:
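Scored as percent fleas killed (0–100%) 48 hours after feeding began. Compound, dissolved in DMSO and diluted into citrated cattle blood, was offered via a parafilm membrane to roughly 20 adult male and female C. felis at about 37° C.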

Experiment [2] relates to Rhipicephalus (Boophilus) microplus. Kind of experiment: In vitro injection test with Rhipicephalus (Boophilus) microplus (BOOPMI Inj). The following applies: 168 h, laid fertile eggs after 7 days, read-out: acaricidal activity; for pest or weed control at 32 ng: dose 0.032 μg/animal injected; for pest or weed control at 0.00016 mg: dose 0.16 μg/animal injected; for pest or weed control at 0.0008 mg: dose 0.8 μg/animal injected. The method in brief: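 Five engorged adult females each get a 1 μl abdominal injection of compound dissolved and diluted in DMSO. Kept 7 days at 28° C./85% rel. hum.; percent activity rates egg laying and egg fertility (0% all fertile, 100% none laid or infertile).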

In experiment [3] the test system is Amblyomma americanum. In words: In vitro contact test with hard ticks (Amblyomma americanum nymphs). As to conditions: read-out: acaricidal activity; for pest or weed control at 1 µg/cm2, 1 µg/cm2: dose 1 μg/cm^2, 48 h. In short, it runs like this:
(§1)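 Acaricidal activity = % ticks dead or moribund after 48 h contact with acetone-deposited compound on vial walls (e.g., 900 ppm solution → 5 μg/cm^2). Ambient conditions for R. sanguineus, 21° C./85% rel. hum. for other species; heat challenge at 45-50° C. separated climbers from moribund ticks.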

The test system of experiment [4] is Ixodes ricinus. Kind of experiment: In vitro contact test with adult hard ticks (Ixodes ricinus). As to conditions: read-out: acaricidal activity; for pest or weed control at 1 µg/cm2, 1 µg/cm2: dose 1 μg/cm^2, 48 h; for pest or weed control at 5 µg/cm2, 5 µg/cm2: dose 5 μg/cm^2, 48 h; for pest or weed control at 0.2 µg/cm2, 0.2 µg/cm2: dose 0.2 μg/cm^2, 48 h. The method in brief: as §1

Experiment [5] has as its system Laodelphax striatellus. Kind of experiment: Insecticidal testing against small brown planthopper. The format is in vivo. The following applies: 144 h, concentration 100 ppm, sprayed rice seedlings, after 6 days, read-out: pesticidal rate. The method in brief: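 Acetone solution of compound at a set concentration sprayed onto rice seedlings, air-dried, then exposed to 10 planthoppers (one group). Held at 25° C; survival rate recorded after 6 days.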

Experiment [6] relates to Spodoptera litura. In words: Insecticidal testing against common cutworm. The experiment is classed as in vivo. As to conditions: foliar, 144 h, concentration 100 ppm, cabbage leaf dip, second-stage larvae, after 6 days, read-out: pesticidal rate. The text has this:
Insecticidal Testing Against Common Cutworm (Spodoptera litura)

The test system of experiment [7] is Rhipicephalus sanguineus. In words: In vitro contact test with adult hard ticks (Rhipicephalus sanguineus). As to conditions: read-out: acaricidal activity; for pest or weed control at 1 µg/cm2, 1 µg/cm2: dose 1 μg/cm^2, 48 h; for pest or weed control at 0.04 µg/cm2, 0.04 µg/cm2: dose 0.04 μg/cm^2, 48 h. The method in brief:
as §1

The test system of experiment [8] is Dermacentor variabilis. In words: In vitro contact test with adult hard ticks (Dermacentor variabilis). The following applies: read-out: acaricidal activity; for pest or weed control at 0.2 µg/cm2, 0.2 µg/cm2: dose 0.2 μg/cm^2, 48 h; for pest or weed control at 1 µg/cm2, 1 µg/cm2: dose 1 μg/cm^2, 48 h. In short, it runs like this:
as §1

Experiment [9] concerns Ctenocephalides felis. In words: In vitro contact test with fleas. As to conditions: read-out: insecticidal activity; for pest or weed control at 0.04 µg/cm2, 0.04 µg/cm2: dose 0.04 μg/cm^2, dead or moribund fleas after 48 h; for pest or weed control at 0.2 µg/cm2, 0.2 µg/cm2: dose 0.2 μg/cm^2, dead or moribund fleas after 48 h; for pest or weed control at 1 µg/cm2, 1 µg/cm2: dose 1 μg/cm^2, dead or moribund fleas after 48 h. The method in brief: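 Activity is the percentage of fleas dead or moribund at 48 h, judged by immobility or uncoordinated movement after tapping. Tubes were coated by evaporating acetone solutions (900 ppm gives 5 μg/cm^2), then held 5-10 adult fleas of both sexes at room temperature and ambient humidity.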

The test system of experiment [10] is Plutella xylostella. Kind of experiment: Insecticidal testing against diamondback moth. The format is in vivo. The following applies: foliar, 144 h, concentration 100 ppm, cabbage leaf dip, third-stage larvae, after 6 days, read-out: pesticidal rate. The text has this:
Insecticidal Testing Against Diamondback Moth (Plutella xylostella)

Consider `CN(C(=O)c1ccc(F)cc1)c1cccc(C(=O)Nc2c(Br)cc(C(F)(C(F)(F)F)C(F)(F)C(F)(F)F)cc2OC(F)F)c1F` (stereo not shown) [Compound 105], for which, in experiment [1], the pest or weed control at 0.032 ppm was 95%, the pest or weed control at 0.16 ppm is 95%, the pest or weed control at 0.8 ppm stood at 95% and the pest or weed control at 4 ppm came out at 95%. Moreover, in experiment [2], the pest or weed control at 32 ng worked out at 100%, the pest or weed control at 0.00016 mg was found to be 100% and the pest or weed control at 0.0008 mg amounted to 100%. Moreover, the pest or weed control at 0.04 µg/cm2, 0.04 µg/cm2 in [3] (dose 0.04 μg/cm^2, 48 h) was 90%. For the same molecule, the pest or weed control at 1 µg/cm2, 1 µg/cm2 in [3] turned out to be 90%. Besides, in experiment [4], the pest or weed control at 1 µg/cm2, 1 µg/cm2 amounted to 90% and the pest or weed control at 5 µg/cm2, 5 µg/cm2 came to 90%. Moreover, the pest or weed control at 100 ppm in experiment [5] is at least 70%. In [6], the pest or weed control at 100 ppm was at least 70%. Also, the pest or weed control at 1 µg/cm2, 1 µg/cm2 in experiment [7] came out at 90%. In [8], the pest or weed control at 0.2 µg/cm2, 0.2 µg/cm2 is 90% and the pest or weed control at 1 µg/cm2, 1 µg/cm2 was found to be 90%. Besides, in experiment [9], the pest or weed control at 0.04 µg/cm2, 0.04 µg/cm2 is 95%; the pest or weed control at 0.2 µg/cm2, 0.2 µg/cm2 is 95%; the pest or weed control at 1 µg/cm2, 1 µg/cm2 was found to be 95%. The pest or weed control at 100 ppm in experiment [10] was at least 70%.
For the molecule `CN(C(=O)c1ccc(F)c(F)c1)c1cccc(C(=O)Nc2c(I)cc(C(F)(C(F)(F)F)C(F)(F)F)cc2OC(F)F)c1F` [Compound 109], in [1], the pest or weed control at 0.032 ppm is 95%, the pest or weed control at 0.16 ppm was determined as 95%, the pest or weed control at 0.8 ppm came to 95% and the pest or weed control at 4 ppm worked out at 95%. Further, in experiment [2] (dose 0.0064 μg/animal injected), the pest or weed control at 6.4 ng worked out at 100%. Further, in [2], the pest or weed control at 32 ng was 100%, the pest or weed control at 0.00016 mg was found to be 100% and the pest or weed control at 0.0008 mg was 100%. For the same molecule, the pest or weed control at 1 µg/cm2, 1 µg/cm2 in experiment [3] worked out at 90%. In experiment [4], the pest or weed control at 0.2 µg/cm2, 0.2 µg/cm2 was determined as 90%; the pest or weed control at 1 µg/cm2, 1 µg/cm2 is 90%; the pest or weed control at 5 µg/cm2, 5 µg/cm2 worked out at 90%. For the same molecule, in experiment [5], the pest or weed control at 100 ppm was at least 70%. In addition, the pest or weed control at 100 ppm in experiment [6] was at least 70%. In addition, in experiment [7], the pest or weed control at 0.04 µg/cm2, 0.04 µg/cm2 worked out at 90%. In [8], the pest or weed control at 0.2 µg/cm2, 0.2 µg/cm2 turned out to be 90% and the pest or weed control at 1 µg/cm2, 1 µg/cm2 worked out at 90%. For the same molecule, in [9], the pest or weed control at 0.04 µg/cm2, 0.04 µg/cm2 stood at 95%; the pest or weed control at 0.2 µg/cm2, 0.2 µg/cm2 turned out to be 95%; the pest or weed control at 1 µg/cm2, 1 µg/cm2 is 95%. The pest or weed control at 100 ppm in experiment [10] is at least 70%.
With `O=C(Nc1cccc(C(=O)Nc2c(I)cc(C(F)(C(F)(F)F)C(F)(F)F)cc2OC(F)(F)F)c1F)c1ccc(F)cc1` [Compound 73], the pest or weed control at 0.16 ppm in [1] was 95%. In addition, the pest or weed control at 0.8 ppm in [1] worked out at 95%. Moreover, in experiment [1], the pest or weed control at 4 ppm was 95%. Moreover, the pest or weed control at 32 ng in experiment [2] was found to be 100%. In experiment [2], the pest or weed control at 0.00016 mg turned out to be 100%. In addition, the pest or weed control at 0.0008 mg in experiment [2] stood at 100%. The pest or weed control at 0.2 µg/cm2, 0.2 µg/cm2 in [3] (dose 0.2 μg/cm^2, 48 h) was 90%; in experiment [4], 90%; in experiment [7] (dose 0.2 μg/cm^2, 48 h), 90%; in experiment [8] it was 90%; in [9], 95%. Also, the pest or weed control at 1 µg/cm2, 1 µg/cm2 in experiment [3] was 90%; in experiment [4] it was 90%; in [7], 90%; in experiment [8] it was 90%; in [9], 95%. Further, in experiment [4], the pest or weed control at 5 µg/cm2, 5 µg/cm2 worked out at 90%. The pest or weed control at 100 ppm in experiment [5], in experiment [6] and in [10] was at least 70% in each case. In addition, the pest or weed control at 0.04 µg/cm2, 0.04 µg/cm2 amounted to 90% in experiment [7]; 90% in [8] (dose 0.04 μg/cm^2, 48 h); 95% in experiment [9].
